We go through one compound from ChEMBL document CHEMBL1201862, “PubChem BioAssay data set” (2004).

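Five compound concentrations were applied to cells in 96-well plates for 48 hours; endpoints were derived by simple linear interpolation of the resulting dose-response curve. GI50 is the concentration that inhibits growth by half.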 Activity calls are given as the source filed them. No stated cut-off is given here; in the data, active = GI50 up to about 1.1 µM and inactive = higher.

Among the test systems are T47D; TK-10; OVCAR-4; LOX IMVI; Malme-3M; PC-3; HOP-92; IGROV-1; NCI/ADR-RES; HL-60; UACC-62; HCT-15; SK-MEL-28; Hs-578T; U-251; KM12; RPMI-8226; SK-MEL-5; DU-145; HT-29.
Experiment in all cases: growth of human tumour cells (NCI), 48 h

For the compound `[O-][S+]1SC(=S)C2C=CC=CC21` (stereo not given), the GI50 is > 100 µM (inactive) with T47D; > 100 µM (inactive) in the experiment with TK-10; > 100 µM (inactive) with OVCAR-4; 34.7 µM (inactive) in the experiment with LOX IMVI; 95.9 µM (inactive) with Malme-3M; > 100 µM (inactive) in the experiment on PC-3. For the same compound, the GI50 was > 100 µM (inactive) with HOP-92; 49.1 µM (inactive) in the experiment on IGROV-1; > 100 µM (inactive) in the experiment on NCI/ADR-RES; 1.62 µM (inactive) in the experiment on HL-60; 58.5 µM (inactive) in the experiment with UACC-62; 40.9 µM in the experiment on HCT-15. Besides, the GI50 in the experiment on SK-MEL-28 was > 100 µM (inactive); with Hs-578T, 84.3 µM (inactive); in the experiment on U-251, > 100 µM (inactive); with KM12 it was > 100 µM (inactive); in the experiment on RPMI-8226, 92.9 µM (inactive); in the experiment on SK-MEL-5, 29.4 µM (inactive). Further, the values for the GI50 in the experiment with DU-145 and with HT-29 were > 100 µM (inactive) and 45.3 µM (inactive), respectively.
